According to ChEMBL document CHEMBL4229567, “Aiming to Miss a Moving Target: Bromo and Extra Terminal Domain (BET) Selectivity in Constrained ATAD2 Inhibitors” (J Med Chem, 2018):

Key:
[1] = biological target: Bromodomain-containing protein 4 (Homo sapiens, UniProt O60885); assay: Inhibition of 6His-tagged Thr-BRD4 (BD1) (1 to 477 residues) (unknown origin) expressed in Escherichia coli BL21(DE3) after 30 mins in presence of biotinylated triacetylated histone H4 peptide by alexa fluor 647 dyse based TR-FRET assay
[2] = biological target: T1, ATPase family AAA domain-containing protein 2 (Homo sapiens, UniProt Q6PL18); assay: Inhibition of N-terminal FLAG-6His-tagged TEV-fused ATAD2 (981 to 1121 residues) (unknown origin) expressed in Escherichia coli BL21(DE3) after 30 mins in presence of biotinylated triacetylated histone H4 peptide by alexa fluor 488-dye based TR-FRET assay
T1 sequence (Q6PL18 whole entry): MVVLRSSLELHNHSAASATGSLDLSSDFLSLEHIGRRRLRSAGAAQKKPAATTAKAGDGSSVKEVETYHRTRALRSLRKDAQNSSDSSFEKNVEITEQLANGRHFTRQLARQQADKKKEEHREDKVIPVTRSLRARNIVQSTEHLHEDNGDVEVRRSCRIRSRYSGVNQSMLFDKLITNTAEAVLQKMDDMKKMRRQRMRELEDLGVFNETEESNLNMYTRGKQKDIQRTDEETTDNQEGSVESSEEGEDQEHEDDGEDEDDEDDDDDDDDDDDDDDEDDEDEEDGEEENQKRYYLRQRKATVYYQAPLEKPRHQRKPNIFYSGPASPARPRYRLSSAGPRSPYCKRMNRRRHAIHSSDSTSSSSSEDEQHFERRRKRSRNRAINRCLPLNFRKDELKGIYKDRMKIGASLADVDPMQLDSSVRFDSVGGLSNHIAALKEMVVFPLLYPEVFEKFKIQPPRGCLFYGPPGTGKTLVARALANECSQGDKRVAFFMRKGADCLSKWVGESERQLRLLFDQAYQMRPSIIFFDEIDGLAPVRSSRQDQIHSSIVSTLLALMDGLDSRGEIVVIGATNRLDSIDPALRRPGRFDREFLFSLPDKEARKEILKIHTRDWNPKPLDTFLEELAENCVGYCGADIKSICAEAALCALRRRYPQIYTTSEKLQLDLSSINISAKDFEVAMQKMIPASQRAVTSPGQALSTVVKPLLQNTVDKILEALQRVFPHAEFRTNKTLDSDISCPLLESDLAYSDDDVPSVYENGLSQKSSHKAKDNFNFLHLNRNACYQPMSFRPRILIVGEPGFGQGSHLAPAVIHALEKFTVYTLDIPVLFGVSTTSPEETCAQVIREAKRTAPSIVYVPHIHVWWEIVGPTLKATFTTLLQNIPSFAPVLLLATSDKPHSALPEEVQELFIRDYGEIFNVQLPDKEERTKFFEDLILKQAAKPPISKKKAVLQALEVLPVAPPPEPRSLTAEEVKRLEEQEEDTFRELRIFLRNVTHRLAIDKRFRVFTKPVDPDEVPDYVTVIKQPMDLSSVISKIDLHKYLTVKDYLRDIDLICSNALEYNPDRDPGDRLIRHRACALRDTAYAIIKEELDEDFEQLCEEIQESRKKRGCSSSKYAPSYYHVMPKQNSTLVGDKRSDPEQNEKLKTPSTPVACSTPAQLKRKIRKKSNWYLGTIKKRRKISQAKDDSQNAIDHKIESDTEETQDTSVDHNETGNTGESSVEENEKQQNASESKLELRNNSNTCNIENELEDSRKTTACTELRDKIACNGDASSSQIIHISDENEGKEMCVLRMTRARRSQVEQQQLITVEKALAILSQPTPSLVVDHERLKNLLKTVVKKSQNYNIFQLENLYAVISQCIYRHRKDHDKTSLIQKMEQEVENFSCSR

Row | Compound | IC50 [1] | IC50 [2]
1 | CO[C@H]1CNC[C@@H](OC)[C@@H]1Nc1nccc2cc(C)c(=O)[nH]c12 | 25.1 µM | 25.1 µM
2 | Cc1cncc(-c2cnc(N[C@@H]3CCNC[C@H]3OCC3CCOCC3)c3[nH]c(=O)c(C)cc23)c1 | 10 µM | 
3 | CO[C@H]1CNC[C@@H](OCC2CCS(=O)(=O)CC2)[C@@H]1Nc1ncc(-c2cncc(C)c2)c2cc(C)c(=O)[nH]c12 | 158 µM | 0.126 µM
4 | Cc1cncc(-c2cnc(N[C@@H]3C[C@H]4CC[C@H](N4)[C@H]3CCC3CCS(=O)(=O)CC3)c3[nH]c(=O)c(C)cc23)c1 | > 50.1 µM | 0.251 µM
5 | CO[C@H]1CNC[C@@H](OCC2CCOCC2)[C@@H]1Nc1ncc(-c2cncc(C)c2)c2cc(C)c(=O)[nH]c12 | 31.6 µM | 0.2 µM
6 | Cc1cncc(-c2cnc(N[C@@H]3C[C@H]4CC[C@H](N4)[C@H]3CCC3CCOCC3)c3[nH]c(=O)c(C)cc23)c1 | 7.94 µM | 0.251 µM

The next compounds have a lower IC50 [1] than those just listed; values first:

Row | IC50 [1] | IC50 [2] | Compound
7 | 5.01 µM | 0.251 µM | Cc1cncc(-c2ccc(N[C@@H]3C[C@H]4CC[C@H](N4)[C@H]3CCC3CCS(=O)(=O)CC3)c3[nH]c(=O)c(C)cc23)c1
8 | 3.98 µM |  | Cc1cc2ccnc(N[C@@H]3CCNC[C@H]3OCC3CCCCC3)c2[nH]c1=O
9 | 5.01 µM | 0.1 µM | Cc1cncc(-c2cnc(N[C@@H]3C[C@H]4CC[C@H](N4)[C@H]3CCC3CCC(F)(F)CC3)c3[nH]c(=O)c(C)cc23)c1
10 | 5.01 µM |  | CO[C@@H]1CNCC[C@H]1Nc1nccc2cc(C)c(=O)[nH]c12
11 | 6.31 µM | 0.0398 µM | Cc1cncc(-c2ccc(N[C@@H]3CCNC[C@H]3OCC3CCC(F)(F)CC3)c3[nH]c(=O)c(C)cc23)c1
